# From publication PMC8879200, “Design, Synthesis, and Biological Evaluation of 4,4’-Difluorobenzhydrol Carbamates as Selective M1 Antagonists” (Pharmaceuticals, 2022)
# Read-outs that look alike come from different tables or passages of the source.
# How the values were obtained:
# hM1 = biological target: T1, hM1 (Homo sapiens, UniProt P11229); assay: Competitive [3H]NMS radioligand binding, CHO-hM1 cell membranes; conditions: inhibition of [3H]NMS binding, CHO-hM1 membranes; read-out: Affinity: Ki ± SD, hM1
# T1 construct: host or cells: CHO-K1, stably transfected
# T1 sequence (P11229 1-460): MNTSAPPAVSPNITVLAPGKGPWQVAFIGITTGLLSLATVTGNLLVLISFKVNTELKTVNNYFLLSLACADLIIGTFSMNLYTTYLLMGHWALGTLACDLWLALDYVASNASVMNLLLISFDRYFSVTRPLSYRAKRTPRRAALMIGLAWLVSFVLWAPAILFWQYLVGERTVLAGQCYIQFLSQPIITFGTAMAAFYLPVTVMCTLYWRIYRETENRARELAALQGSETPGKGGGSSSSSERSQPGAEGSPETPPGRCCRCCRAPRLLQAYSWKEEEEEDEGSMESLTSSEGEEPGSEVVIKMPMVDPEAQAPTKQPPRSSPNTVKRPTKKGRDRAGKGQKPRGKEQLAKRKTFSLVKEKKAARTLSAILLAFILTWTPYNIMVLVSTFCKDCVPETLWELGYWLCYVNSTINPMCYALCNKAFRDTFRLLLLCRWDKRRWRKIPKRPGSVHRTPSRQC
# Method: (§1) We first assessed the carbamates’ affinities for human muscarinic acetylcholine receptors subtypes hM1–5 by means of a competitive radioligand binding assay displacing [N-methyl-^3H]scopolamine methyl chloride ([^3H]NMS) in cell membranes expressing the individual receptors.
# (§2) Cell membranes bearing hM1-hM5 receptors were prepared as described previously. Briefly, stably transfected CHO-K1 cells were grown to at least 80% confluency in T175 flasks, washed with ice-cold DPBS, and scraped into a mixture of ice-cold of 2 mL 10 mM Tris-HCl, 1 mM EDTA-buffer, pH 7.4 and 200 µL protease inhibitor. A cell homogenate was prepared by passing the cell suspension through a G29 needle. The cell homogenates corresponding to two T175 flasks were combined and subsequently centrifuged (10 min, 1000 × g, 4 °C). Ultracentrifugation of the supernatant (1 h, 100,000 × g, 4 °C) yielded a membrane pellet, which was suspended in 250 µL 50 mM Tris-HCl buffer, pH 7.4 and stored at −80 °C.
# (§3) Maximum binding was measured by using 5 µL DMSO, and nonspecific binding was measured by using 5 µL of 1 µM scopolamine in DMSO. […] The membrane-bound radioactivity was recovered by filtration through Whatman™ GF/B glass fibre filters pre-soaked in aqueous 0.1% PEI using an M-36 tygon tubed cell harvester (Brandel®, Gaithersburg, MD, USA). Membranes were washed 3 times with ice-cold washing buffer (50 mM Tris, pH 7.4) before being dried, transferred to 2 mL scintillation cocktail (UltimaGold™, high flashpoint LSC cocktail, PerkinElmer, Waltham, MA, USA) and counted in a β -counter (Hidex TDCR Liquid Scintillation Counter in CPM mode). IC50 values were calculated by a variable slope logistic regression using at least five distinct concentrations of test compounds, pipetted in triplicates.
# hM2 = biological target: T2, hM2 (Homo sapiens, UniProt P08172); assay: Competitive [3H]NMS radioligand binding, CHO-hM2 cell membranes; conditions: for Ki: read-out: Affinity: Ki ± SD, hM2
# T2 construct: host or cells: CHO-K1, stably transfected
# T2 sequence (P08172 1-466): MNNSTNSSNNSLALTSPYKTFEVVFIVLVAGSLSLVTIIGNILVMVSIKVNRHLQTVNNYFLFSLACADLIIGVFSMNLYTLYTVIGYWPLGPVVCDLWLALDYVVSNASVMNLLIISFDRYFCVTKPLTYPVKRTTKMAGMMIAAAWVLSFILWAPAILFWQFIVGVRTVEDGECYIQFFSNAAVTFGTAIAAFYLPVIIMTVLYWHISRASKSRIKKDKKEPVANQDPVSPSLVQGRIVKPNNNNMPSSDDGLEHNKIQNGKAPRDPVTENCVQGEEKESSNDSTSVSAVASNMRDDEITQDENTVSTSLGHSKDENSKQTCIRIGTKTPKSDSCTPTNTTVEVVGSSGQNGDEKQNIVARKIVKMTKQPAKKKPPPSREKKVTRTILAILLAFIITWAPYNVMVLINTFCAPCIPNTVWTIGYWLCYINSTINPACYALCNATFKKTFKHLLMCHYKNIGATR
# Method: as §1, §2, §3
# hM3 = biological target: T3, hM3 (Homo sapiens, UniProt P20309); assay: Competitive [3H]NMS radioligand binding, CHO-hM3 cell membranes; conditions: for Ki: read-out: Affinity: Ki ± SD, hM3
# T3 construct: host or cells: CHO-K1, stably transfected
# Method: as §1, §2, §3
# hM4 = biological target: T4, hM4 (Homo sapiens, UniProt P08173); assay: Competitive [3H]NMS radioligand binding, CHO-hM4 cell membranes; conditions: for Ki: inhibition of [3H]NMS binding, CHO-hM4 membranes, read-out: Affinity: Ki ± SD, hM4
# T4 construct: host or cells: CHO-K1, stably transfected
# T4 sequence (P08173 1-479): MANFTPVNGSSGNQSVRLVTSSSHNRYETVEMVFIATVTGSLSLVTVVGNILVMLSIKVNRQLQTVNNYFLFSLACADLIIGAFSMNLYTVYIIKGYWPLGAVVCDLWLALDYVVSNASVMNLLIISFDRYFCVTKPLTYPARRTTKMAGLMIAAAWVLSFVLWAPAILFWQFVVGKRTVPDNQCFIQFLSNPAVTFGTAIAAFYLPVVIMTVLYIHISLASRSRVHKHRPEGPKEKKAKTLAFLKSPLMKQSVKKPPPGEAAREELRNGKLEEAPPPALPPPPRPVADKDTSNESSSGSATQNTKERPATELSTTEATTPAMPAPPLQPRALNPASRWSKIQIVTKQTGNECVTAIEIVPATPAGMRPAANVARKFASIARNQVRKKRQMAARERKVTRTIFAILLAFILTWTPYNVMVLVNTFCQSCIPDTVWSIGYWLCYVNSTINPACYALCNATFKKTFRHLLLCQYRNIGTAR
# Method: as §1, §2, §3
# hM5 = biological target: T5, hM5 (Homo sapiens, UniProt P08912); assay: Competitive [3H]NMS radioligand binding, CHO-hM5 cell membranes; conditions: for Ki: inhibition of [3H]NMS binding, CHO-hM5 membranes, read-out: Affinity: Ki ± SD, hM5
# T5 construct: host or cells: CHO-K1, stably transfected
# T5 sequence (P08912 1-532): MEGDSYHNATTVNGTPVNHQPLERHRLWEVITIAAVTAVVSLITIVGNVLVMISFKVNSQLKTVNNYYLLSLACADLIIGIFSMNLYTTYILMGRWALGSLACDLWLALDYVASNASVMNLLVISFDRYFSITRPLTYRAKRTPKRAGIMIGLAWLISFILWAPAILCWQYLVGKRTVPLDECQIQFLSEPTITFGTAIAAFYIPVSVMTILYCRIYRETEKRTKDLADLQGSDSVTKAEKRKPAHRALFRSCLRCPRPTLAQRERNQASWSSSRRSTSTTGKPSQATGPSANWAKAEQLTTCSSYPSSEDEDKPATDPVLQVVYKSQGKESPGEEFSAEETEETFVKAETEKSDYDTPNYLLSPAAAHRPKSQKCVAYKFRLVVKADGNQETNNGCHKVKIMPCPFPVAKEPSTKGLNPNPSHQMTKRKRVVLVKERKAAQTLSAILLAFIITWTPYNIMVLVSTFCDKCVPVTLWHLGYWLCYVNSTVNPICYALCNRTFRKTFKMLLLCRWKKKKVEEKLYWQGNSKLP
# Method: as §1, §2, §3
# physchem = conditions: pH 7.4
# Method: (§4) Briefly, a mixture of toluene (≥98%, Sigma-Aldrich, St. Louis, MO, USA) and triphenylene (≥99.9%, Carl Roth, Karlsruhe, Germany) was used as internal standard. Each sample was dissolved in the internal standard mixture. Using gradient elution, the injection volume was set to 7 µL, the flow rate was 1.5 mL/min, and the mobile phase consisted of a mixture of methanol and 0.01 M sodium phosphate buffer pH 7.4. The HPLC-logD values were derived from the measured retention times following the previously published equation [27, 30].
# [1] = High throughput HPLC-logD (lipophilicity); conditions: pH 7.4
# Method: as §4
# T3 sequence (P20309 whole entry): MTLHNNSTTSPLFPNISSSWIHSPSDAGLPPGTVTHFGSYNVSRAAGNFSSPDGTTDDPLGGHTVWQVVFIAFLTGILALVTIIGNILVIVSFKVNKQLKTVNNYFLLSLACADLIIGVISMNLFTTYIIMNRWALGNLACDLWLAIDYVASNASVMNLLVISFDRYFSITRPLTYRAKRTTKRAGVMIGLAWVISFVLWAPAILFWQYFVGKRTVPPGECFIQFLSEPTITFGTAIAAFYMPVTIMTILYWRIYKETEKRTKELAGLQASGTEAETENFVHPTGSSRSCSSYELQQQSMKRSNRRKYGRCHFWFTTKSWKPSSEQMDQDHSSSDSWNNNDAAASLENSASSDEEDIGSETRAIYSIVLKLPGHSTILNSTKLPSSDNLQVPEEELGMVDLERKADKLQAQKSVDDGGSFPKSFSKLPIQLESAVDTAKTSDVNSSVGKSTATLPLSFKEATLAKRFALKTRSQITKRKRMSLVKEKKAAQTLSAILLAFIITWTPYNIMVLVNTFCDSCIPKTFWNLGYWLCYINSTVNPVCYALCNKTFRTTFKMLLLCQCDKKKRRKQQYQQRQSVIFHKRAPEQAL
x-Fold selectivity for hM1 vs. hM2 (hM2; ratio of Ki values hM2/hM1) [fold],Ki (hM2) [µM],x-Fold selectivity for hM1 vs. hM3 (hM3; ratio of Ki values hM3/hM1) [fold],Ki (hM3) [µM],x-Fold selectivity for hM1 vs. hM4 (hM4; ratio of Ki values hM4/hM1) [fold],x-Fold selectivity for hM1 vs. hM5 (hM5; ratio of Ki values hM5/hM1) [fold],melting point [°C],chromatographic logD [1],Structure (SMILES),Ki (hM1) [µM],"Ki (hM2; inhibition of [3H]NMS binding, CHO-hM2 membranes, >1000 values from two independent experiments) [µM]","Ki (hM3; inhibition of [3H]NMS binding, CHO-hM3 membranes, >1000 values from two independent experiments) [µM]",Ki (hM4) [µM],Ki (hM5) [µM],chromatographic logD (physchem)
–,–,–,–,–,–,–,–,"CN1C2CCCC1CC(NC(=O)OC(c1ccc(F)cc1)c1ccc(F)cc1)C2 [Compound 8, Bis(4-fluorophenyl)methyl ((1R,3s,5S)-9-methyl-9-azabicyclo[3.3.1]nonan-3-yl)carbamate]",0.475 ± 0.0885,0.624 ± 0.104,> 1,0.563 ± 0.0734,0.521 ± 0.173,3.21 ± 0.03
10.6,0.722 ± 0.101,2.7,0.181 ± 0.0681,2.1,1.0,84 to 86,2.8 ± 0.1,"CN1CCC(NC(=O)OC(c2ccc(F)cc2)c2ccc(F)cc2)C1 (centres unmarked) [Compound 9, Bis(4-fluorophenyl)methyl (1-methylpyrrolidin-3-yl)carbamate]",0.0678 ± 0.0054,–,–,0.144 ± 0.0373,0.0645 ± 0.0228,–
